The text below walks through data of PMC11816975, “Bioactive Peptides from Milk Proteins with Antioxidant, Anti-Inflammatory, and Antihypertensive Activities” (Foods, 2025).

As usually defined, the IC50 is the concentration needed to halve the response being measured. Lower therefore signals inhibition by little substance.

The target of one data set is ACE-1 enzyme (Homo sapiens, UniProt P12821). Kind of data set: ACE-1 inhibition assay (colorimetric kit).
The nature of another data set: in vitro. The class given is cell-based, murine. As to conditions: for IC50 at 24 h: mouse. How it is done:
RAW 264.7 (ATCC TIB-71) murine macrophage-like cells were cultured in high-glucose Dulbecco’s modified Eagle’s medium (DMEM, Sigma-Aldrich) supplemented with 10% fetal bovine serum (FBS, Corning) and 1% penicillin/streptomycin (Corning). Cells were grown under standard culture conditions in a 5% CO2 incubator at 37 °C (MCO-170AC incubator; PHC Corporation, Tokyo, Japan), and were sub-cultured every two or three days when it was noticed that the cells had reached around 80% confluence. The assays were performed in cell passages from passages 9 to 21 to avoid phenotypic and genetic instability. Unless otherwise stated, all treatments were carried out with DMEM supplemented with 1% penicillin/streptomycin only (serum-free conditions). The cytotoxicity of the peptides towards RAW 264.7 cells was evaluated using the colorimetric 3-(4,5-dimethylthiazol-2-yl)-2,5-diphenyl tetrazolium bromide (MTT) assay. The assay was performed according to Mosmann, with a few modifications. Briefly, cells were seeded in a 96-well plate at a density of 2.5 × 10^3 cells per well and incubated for 24 h (5% CO2, 37 °C). After the incubation period, the medium was removed and replaced with different concentrations of the peptides’ aqueous solutions diluted in fresh FBS-free DMEM to the final concentrations of 1–0.005 mg/mL in each well. Following another 24 h incubation period, 10 µL of a 5 mg/mL stock solution of 3-(4,5-Dimethylthiazol-2-yl)-2,5-diphenyltetrazolium bromide (MTT; Alfa Aesar) was added to each well, and the plate was incubated for 3 h (5% CO2, 37 °C). Dimethyl sulfoxide (DMSO, Thermo Fisher Scientific) was used to dissolve the formazan crystals formed by the intracellular reduction of MTT. The absorbance was measured at a dual wavelength of 570/690 nm using a Multiskan SkyHigh microplate reader (Thermo Fisher Scientific). The percentage of viable cells was calculated and the concentration of each peptide able to inhibit 50% of cell viability (IC50) was determined. The experiments were carried out in three independent assays, and the results are shown as mean ± standard deviation (SD).

Data set [1] has as its system spontaneously hypertensive rats. Also noted: method as in PMID 16830788. As to conditions: cited from earlier work.
In a further data set the test system is ACE-1. Conditions: cited from earlier work.
Data set [2] can be described thus: FRAP (ferric reducing antioxidant power) assay. As for the experimental part: The antioxidant power of a given compound is not limited to its radical-scavenging activity. In fact, the ferric reducing antioxidant power (FRAP) assay, is a well-established test to measure a compound’s ability to act as a reductant in a colorimetric redox reaction, where ferric (Fe^3+) ions are reduced to the ferrous (Fe^2+) state in the acidic medium.
The ferric-reducing antioxidant power (FRAP) was determined using a FRAP kit (Sigma-Aldrich) with minor modifications to the manufacturer’s instructions. Briefly, in a 96-well plate, 5 µL of peptides’ aqueous solutions at different concentrations (50–0.05 µg/mL) was added per well. Then, 95 µL of the reaction cocktail (FRAP assay buffer, FeCl3 solution, and FRAP probe) was added to each well. The absorbance was measured at 594 nm in kinetic mode (Multiskan SkyHigh, Thermo Fisher Scientific) for 60 min, at 37 °C. A ferrous standard curve was plotted with Ferrous ammonium sulfate at 0, 4, 8, 12, 16, and 20 nmol/well, and the absorbances of each sample were compared to the standard curve. Quercetin (100–0.1 µg/mL in ethanol) was used as a positive control. All measurements were performed in three independent experiments. Data are shown as mean ± SD.

Data set [3] can be described thus: DPPH• radical scavenging assay. Conditions: relative concentration to reduce 50% of initial DPPH•; mean ± SD, n = 3. As for the experimental part:
The free radical-scavenger activity was determined by the DPPH^• assay, according to Oliveira et al.. Briefly, in a 96 well-plate, 19.4 µL of aqueous solutions of the peptides at different concentrations (100–0.1 µg/mL) was added per well. Then, 175 µL of an ethanolic solution of 2,2-diphenyl-1-picrylhydrazyl radical (DPPH^•, Merck) was added to the wells ([…]—90 µM for final concentration in the experiment). The absorbance was read at 515 nm (Multiskan SkyHigh multiplate reader, Thermo Fisher Scientific) in kinetic mode for 60 min and at room temperature. The percentage of remaining DPPH^• was plotted against the peptides’ concentrations and the amount of test compounds necessary to decrease by 50% the initial concentration of DPPH (RIC50) was calculated (GraphPad Prism 9.4.0, GraphPad Software). Quercetin (100–0.1 µg/mL in ethanol) was used as a positive control.
The DPPH^• radical scavenging activity determines the ability of an antiradical compound to neutralize DPPH^• radical to its reduced form (DPPH-H) and is usually expressed as the concentration of the compound required to reduce the DPPH^• radical by 50% (IC₅₀). […]
(In general: Loss of DPPH colour is used to gauge radical scavenging.)

Data set [4] has as its system O2•− production in LPS-stimulated RAW 264.7 cells. Kind of data set: Intracellular superoxide production (NBT assay) in LPS-stimulated macrophages. Type of data set: cell-based, murine. Conditions: at 10 µg/mL. As for the experimental part:
Considering the link between oxidative stress and inflammation, both the antioxidant and the anti-inflammatory potential of the selected peptides was determined in cellulo using macrophage-like cells (RAW 264.7 cell line) stimulated with lypopolysaccharides (LPSs) from Escherichia coli. […] In other words, RAW 264.7 cells are activated by foreign stimuli like, e.g., exposure to LPSs. This activation is initiated by the binding of LPSs to cell membrane receptors, which triggers signaling pathways that will result in the generation of proinflammatory mediators (e.g., nitric oxide) and cytokines such as interleukin (IL)-6, IL-8, tumor necrosis factor-alpha (TNF)-α [41, 42]. Since proinflammatory mediators are held in several metabolic pathways, including the production of reactive oxygen species (ROS), e.g., the radical-anion superoxide (O2^•−), LPS exposure also leads to oxidative stress. […]
The potential inhibitory effect of the peptides on superoxide radical (O2^−) by RAW 264.7 cells activated by LPS (1 µg/mL) was evaluated according to Mitra et al. with some modifications. […] The absorbance was measured in a microplate reader at a dual wavelength of 620/700 nm. […] The experiments were performed in three independent assays and the results were expressed as a percentage of O2^- production. […]

Data set [5] has as its system NO production in LPS-stimulated RAW 264.7 cells. As to the kind of experiment: Griess assay (nitric oxide production) in LPS-stimulated macrophages. The class given is cell-based, murine. Conditions: at 10 µg/mL. From the text:
The Griess assay is a classical indirect method to measure the production of nitric oxide through the quantification of nitrite anions. As previously mentioned, NO is an inflammatory biomarker that can be produced when LPS-activated macrophages produce proinflammatory mediators and cytokines, which in turn elicit the production of reactive species like ROS and the expression/activity of relevant enzymes, including the nitric oxide synthase (NOS).
The Nitrite Assay Kit (Griess Reagent, Sigma-Aldrich) was used to determine the influence of peptide treatments on nitric oxide production by RAW 264.7 cells activated by LPS (1 µg/mL). To this end, peptide solutions at different concentrations (50–3.12 µg/mL—serial dilution) in an FBS-free medium were used. Briefly, 7 × 10^4 RAW 264.7 cells per well were seeded in a 96-well plate and incubated for 24 h (5% CO2, 37 °C). On the next day, the medium was removed and replaced with different concentrations of the peptides. After another 24 h incubation period (5% CO2, 37 °C), 50 µL of culture supernatant was transferred to a 96-well plate. […] The absorbance was measured at 540 nm using a microplate reader (Multiskan SkyHigh, Thermo Scientific) A nitrite standard curve was plotted with nitrite standards at 0, 2, 4, 8, and 10 nmol/well, and the absorbances of each sample were compared to the standard curve. […]
Background: Nitrite, measured by Griess reagent, commonly stands in for NO production.

In brackets after ≈: the same amount, converted by molar mass. Where no end group is shown, it is not given here.

Sequence of ACE-1 enzyme (P12821 30-1306): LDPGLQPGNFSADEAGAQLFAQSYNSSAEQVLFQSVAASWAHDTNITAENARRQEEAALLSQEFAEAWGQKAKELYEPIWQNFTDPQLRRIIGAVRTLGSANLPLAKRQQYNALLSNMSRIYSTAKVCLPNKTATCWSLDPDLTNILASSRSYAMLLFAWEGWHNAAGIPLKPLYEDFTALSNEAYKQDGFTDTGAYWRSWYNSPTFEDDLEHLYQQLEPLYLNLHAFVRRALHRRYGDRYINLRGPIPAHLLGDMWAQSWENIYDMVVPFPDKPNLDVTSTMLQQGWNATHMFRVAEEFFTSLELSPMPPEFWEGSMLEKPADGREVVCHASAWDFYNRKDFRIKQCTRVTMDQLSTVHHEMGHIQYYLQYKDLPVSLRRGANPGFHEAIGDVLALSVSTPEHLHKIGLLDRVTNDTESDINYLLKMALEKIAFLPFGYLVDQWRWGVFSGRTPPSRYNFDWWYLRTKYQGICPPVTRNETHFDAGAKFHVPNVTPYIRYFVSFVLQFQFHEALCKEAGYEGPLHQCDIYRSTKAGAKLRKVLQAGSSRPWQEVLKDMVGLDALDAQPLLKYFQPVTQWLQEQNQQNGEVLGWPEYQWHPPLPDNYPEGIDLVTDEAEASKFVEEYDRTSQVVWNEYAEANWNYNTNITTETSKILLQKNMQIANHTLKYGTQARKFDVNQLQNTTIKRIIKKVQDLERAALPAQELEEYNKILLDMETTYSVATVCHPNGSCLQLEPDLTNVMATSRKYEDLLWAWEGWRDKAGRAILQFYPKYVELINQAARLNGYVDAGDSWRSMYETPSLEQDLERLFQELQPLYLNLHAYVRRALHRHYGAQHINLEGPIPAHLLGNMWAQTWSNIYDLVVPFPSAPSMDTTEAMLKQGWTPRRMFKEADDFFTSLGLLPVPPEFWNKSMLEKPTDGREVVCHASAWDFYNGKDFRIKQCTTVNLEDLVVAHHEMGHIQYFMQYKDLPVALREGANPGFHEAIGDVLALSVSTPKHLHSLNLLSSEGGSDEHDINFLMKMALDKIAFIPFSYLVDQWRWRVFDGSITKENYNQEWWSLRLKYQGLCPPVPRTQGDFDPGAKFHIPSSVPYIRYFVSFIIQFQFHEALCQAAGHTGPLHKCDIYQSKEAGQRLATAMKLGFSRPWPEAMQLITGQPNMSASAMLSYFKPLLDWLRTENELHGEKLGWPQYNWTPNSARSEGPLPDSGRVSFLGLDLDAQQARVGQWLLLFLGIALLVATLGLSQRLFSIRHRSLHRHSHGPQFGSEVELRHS
Procedure for ACE-1 enzyme: Therefore, the ability of the LF-derived peptides to inhibit ACE-1 was evaluated.
The activity of the ACE-1 enzyme was measured using a colorimetric ACE-1 Inhibitor Screening Kit (Abcam) with minor modifications to the manufacturer’s instructions. Briefly, in a 96-well plate, 12.5 µL of peptide’s aqueous solutions at different concentrations (100–0.1 µg/mL) were added per well. Then, 20 µL of diluted ACE-1 enzyme solution was added to each well. The total volume of each well was adjusted to 100 µL and the plate was incubated at 37 °C for 15 min. After the incubation period, 25 µL of the reaction mixture (substrate mixture and ACE-1 assay buffer) were added to the samples, and the absorbance was read in kinetic mode at 345 nm for 60 min at 37 °C (Multiskan SkyHigh, Thermo Scientific). Captopril (22 ng/mL) was used as the positive control. The reaction inhibition percentage was calculated and the IC50 was determined (GraphPad Prism 9.4.0, GraphPad Software). The experiments were carried out in three independent assays and the results are expressed as mean ± SD.

Compound “AKCAKFQRNMKKVRG-NH2 [aLF-17-31, AKCAKFQRNMKKVRG-NH2]” gave an IC50 against ACE-1 enzyme of 31.2 µM.
For “GRRRRSVQWCA-NH2 [rhLF-1-11, GRRRRSVQWCA-NH2]”, the IC50 at 24 h in the data set “in vitro” is 355 ± 12 µg/mL. This compound gave a concentration for half-maximal inhibition (IC50) on ACE-1 enzyme of 57.5 µM.
Consider “WKLLSKAQEKFGKNKSR-NH2 [bLF-268-284, WKLLSKAQEKFGKNKSR-NH2]”, for which the concentration for half-maximal inhibition (IC50) at ACE-1 enzyme was over 48.8 µM.
Take LRPVAA: the blood pressure entry in data set [1] is on record as “reducing blood pressure”. In the data set with ACE-1, the “ACE-1 inhibition in vitro” value is “effective in inhibiting ACE-1 in vitro”.
For “APRKNVRWCTI-NH2 [bLF-1-11, APRKNVRWCTI-NH2]”, it took 290 ± 5 µg/mL to reach half-maximal inhibition in “in vitro” (IC50 at 24 h).
On to “WNLLRQAQEKFGKDKSP-NH2 [nhLF-268-284, WNLLRQAQEKFGKDKSP-NH2]”, for which half-maximal inhibition against ACE-1 enzyme (IC50) was put at 25.6 µM.
Consider `CSCC[C@H](NC(=O)[C@H](CCCNC(=N)N)NC(=O)[C@H](Cc1c[nH]c2ccccc12)NC(=O)[C@H](CCC(N)=O)NC(=O)[C@H](Cc1c[nH]c2ccccc12)NC(=O)[C@H](CCCNC(=N)N)NC(=O)[C@H](CCCNC(=N)N)NC(=O)[C@H](CS)NC(=O)[C@H](CCCCN)NC(=O)[C@@H](N)Cc1ccccc1)C(=O)N[C@@H](CCCCN)C(=O)N[C@@H](CCCCN)C(=O)N[C@@H](CC(C)C)C(=O)NCC(=O)N[C@@H](C)C(N)=O` [bLF-17-31, FKCRRWQWRMKKLGA-NH2], for which the IC50 was 135 ± 6 µg/mL (≈ 67.7 µM) in “in vitro” and 31.6 µM on ACE-1 enzyme.
Take `O=c1c(O)c(-c2ccc(O)c(O)c2)oc2cc(O)cc(O)c12` [Quercetin]: the “FRAP (mM Ferrous Equivalents)” value in data set [2] (0.05 µg/mL) was 0.85 ± 0.25 mM Ferrous Equivalents; in data set [2] (0.5 µg/mL) it was 1.40 ± 0.23 mM Ferrous Equivalents; in data set [2] (5 µg/mL), 8.02 ± 0.57 mM Ferrous Equivalents; in data set [2] (50 µg/mL) it was 16.09 ± 0.87 mM Ferrous Equivalents. The same compound gave an IC50 at 24 h in the data set “in vitro” of 65 ± 2 µg/mL (≈ 215 µM). In addition, the “DPPH Radical Scavenging Activity (RIC50 mol/mol DPPH)” value in data set [3] came out at 0.09 ± 0.02 mol/mol DPPH. Besides, the “reduction of O2•− production compared to the control (LPS +)” value in data set [4] is on record as “about 25%”. Besides, in data set [5], the “NO levels in LPS-activated cells” value is listed as “significantly reduce NO levels”.
